Test results as given in US20070077283A1, “METHOD OF ENHANCING TRANSMUCOSAL DELIVERY OF THERAPEUTIC COMPOUNDS” (Nastech Pharmaceutical Company Inc., priority 2005, published 2007).

What was measured:
[1] = tested on: human-derived tracheal/bronchial epithelial cells (EpiAirway Tissue Model); experiment: in vitro
Description: Normal, human-derived tracheal/bronchial epithelial cells will serve as the model cell system for assessing the lipids listed in Table 1. The cells are supplied by MatTek Corp. (Ashland, Mass.) as the EpiAirway™ Tissue Model. The cells are provided as a confluent monolayer on a Millipore Milicell-CM cell culture insert with a pore size of 0.4 μM, inner diameter of 0.8 cm and surface area of 0.6 cm^2 and comprised of transparent hydrophilic Teflon (PTFE). Upon receipt, the membranes are cultured in 1 ml basal media (phenol red-free and hydrocortisone-free Dulbecco's Modified Eagle's Media (DMEM) at 37° C./5% CO2 for 24-48 hours before use. Inserts are feed for each day of recovery.
The amount of cell death was assayed by measuring the loss of lactate dehydrogenase (LDH) from the cells using a CytoTox 96 Cytotoxicity Assay Kit (Promega Corp., Madison, Wis.). A treatment of 1% Octylphenolpoly(ethyleneglycolether)x (Triton X-100™) diluted in PBS was used as a lysis control. One percent Triton X-100™ mediated cell lysis was normalized to 100%. For basal-lateral LDH levels, triplicates of 50 μl of the basal media were loaded into a 96-well assay plate. For apical LDH levels, 150 μl of Epi-Cm was added to the apical side of each chamber and mixed by pipeting. One hundred and fifty microliters was then removed and diluted 2-fold prior to performing the LDH assay. All apical LDH assay were performed in triplicate and with 50 μl of the diluted test solution. Fresh, cell-free culture medium will be used as a blank. Total LDH levels were determined by lysing cells in a final concentration of 0.9% Triton-X100™. Fifty microliters of substrate solution was added to each well and the plates incubated for 30 minutes at room temperature in the dark. Following incubation, 50 μl of stop solution was added to each well and the plates read on an optical density plate reader at […]. Cytotoxicity was expressed as a percentage calculated by subtracting the average absorbance of the PBS control wells as the endogenously released LDH level and expressing that value relative to the average Triton-X100 control, which represents total LDH content. [formula] Osmolality
For the instant application, phosphate buffered saline (PBS) served as a negative control for both the TER assay and LDH (cytotoxicity) assay. […] TER measurements and LDH levels were taken immediately after a one hour treatment of the cultured cells with each lipid, unless specified otherwrise.
TER reduction was expressed as the percent decrease in TER value from time zero to one hour post-treatment. Thus, greater percent reduction in TER represents less electrical resistance across the epithelial cell monolayer and consequently greater epithelial cell permeation. Cytotoxicity (LDH levels) for each lipid was expressed as a percent of the LDH levels measured after Triton-X100 treatment of the cells. Triton-X100™ LDH levels were normalized to 100%.

[2] = tested on: human-derived tracheal/bronchial epithelial cells (EpiAirway Tissue Model); experiment: Transepithelial electrical resistance (TER) of an epithelial cell monolayer; type: cell-based; conditions: for activity at 1000 µM: Homo sapiens, Epithelial cell, 1 h, read-out: Mean % of Original TER Value
Description: Inserts are feed for each day of recovery. TER measurements were accomplished using the Endohm-12 Tissue Resistance Measurement Chamber connected to the EVOM Epithelial Voltohmmeter (World Precision Instruments, Sarasota, Fla.) with the electrode leads. The electrodes and a tissue culture blank insert were equilibrated for at least 20 minutes in MatTek medium with the power off prior to checking calibration. The background resistance was measured with 1.5 ml media in the Endohm tissue chamber and 300 μl media in the blank insert. The top electrode was adjusted so that it was close to, but not making contact with, the top surface of the insert membrane. Background resistance of the blank insert was about 5-20 ohms. […] TER values are a function of the surface area of the tissue. […] By this method of calculation, TER will be expressed as both Ohms*cm2 and percent original TER value. […] Several different lipid types (see Table 1) were screened to select for lipids that are capable of enhancing the permeation of a biological agent across an epithelial cell monolayer. […] A reduction in TER correlates with the ability to enhance the permeation of a molecule and biological agent across an epithelia.

[3] = tested on: human-derived tracheal/bronchial epithelial cells (EpiAirway Tissue Model); experiment: FITC-Dextran permeation assay across epithelial cell monolayer; type: cell-based; conditions: for Mean % FD3 Permeation: FITC-dextran 3000 (Table 4); for permeation of FD3 relative to negative controls: text summary of Table 4
Description: Each tissue insert was placed in an individual well containing 1 ml of MatTek basal media. On the apical surface of the inserts, 20 μl of test formulation was applied according to study design, and the samples were placed on a shaker (˜100 rpm) for 1.5 hours at 37° C. FITC-labeled dextran solution was added to inserts apically and a fluorescence measurement was taken from the basolateral media after the incubation period. Two hundred microliters of the basal media for each test formulation was transferred to a dark-wall fluorescent reading plate. Each test formulation was tested in triplicate. Fluorescent intensity was measured at 470 nM with the microplate fluorescence reader FLx800 (Bio-Tek Instruments, Inc., Winooski, Vt.). A FITC labeled dextran with a molecular weight of 3 kDA, 10 kDA, 20 kDA, 40 kDA, 70 kDA and/or 500 kDA was used to assess the ability of individual lipids to deliver a model protein across an epithelia.
Permeation is expressed as percent permeation and was calculated as follows: [formula] [formula] Terms
PBS and 0.3% Triton-X100™ served as […]. […] FD permeation was presented as the percent of FD that crossed from the apical side of the epithelial cell monolayer to the basolateral cell surface.

[4] = lipid 1000 μM, percent of Triton-X100 LDH levels
[5] = lipid 1000 μM, percent decrease in TER from time zero
[6] = lipid 125 μM, percent of Triton-X100 LDH levels
[7] = lipid 250 μM, percent of Triton-X100 LDH levels
[8] = lipid 500 μM, percent of Triton-X100 LDH levels
[9] = lipid 1000 μM, lower value = greater TER reduction (Table 4)
[10] = positive controls, concentration N/A (Special Sauce; 0.3% Triton-X100)
[11] = positive controls: Special Sauce 1X, 1% Triton (Table 4)

Molecule: 1,3-Di(3-sn-Phosphatidyl)-sn-Glycerol Disodium Salt [Cardiolipin (sodium salt)]
- Cytotoxic Effect (LDH) 1 hr. Post-treatments [1, 4]: 21%
- Mean TER Reduction 1 hr. Post-treatment [2, 5]: 32%

Molecule: 1-Alkyl-2-Acetoyl-sn-Glycero-3-Phosphocholine [Platelet-Activation Factor]
- Cytotoxic Effect (LDH) 1 hr. Post-treatments [1, 4]: 19%
- Mean TER Reduction 1 hr. Post-treatment [2, 5]: 35%

Molecule: 1-Alkyl-2-Hydroxy-sn-Glycero-3-Phosphocholine [Lyso-Platelet-Activation Factor]
- Cytotoxic Effect (LDH) 1 hr. Post-treatments ([1]; lipid 62.5 μM, percent of Triton-X100 LDH levels): 2%
- Cytotoxic Effect (LDH) 1 hr. Post-treatments [1, 6]: 3%
- Cytotoxic Effect (LDH) 1 hr. Post-treatments [1, 7]: 6%
- Cytotoxic Effect (LDH) 1 hr. Post-treatments [1, 8]: 22%
- Cytotoxic Effect (LDH) 1 hr. Post-treatments [1, 4]: 34%
- Mean TER Reduction 1 hr. Post-treatment ([2]; lipid 62.5 μM): 48%
- Mean TER Reduction 1 hr. Post-treatment ([2]; lipid 125 μM): 23%
- Mean TER Reduction 1 hr. Post-treatment ([2]; lipid 250 μM): 29%
- Mean TER Reduction 1 hr. Post-treatment ([2]; lipid 500 μM): 61%
- Mean TER Reduction 1 hr. Post-treatment [2, 5]: 84%

Molecule: CCCCCCCCCCCCCCCCOC[C@H](COP(=O)(O)OCC[N+](C)(C)C)OCC [2-O-Ethyl-PAF, 1-O-Hexadecyl-2-O-Ethyl-sn-Glycero-3-Phosphorylcholine]
- Mean % Relative Cytotoxic Effect (LDH) ([1]; lipid 500 μM (Table 4)): 1%
- Mean % Relative Cytotoxic Effect (LDH) ([1]; lipid 1000 μM (Table 4)): 2%
- Mean % FD3 Permeation ([3]; lipid 500 μM): 1%
- Mean % FD3 Permeation ([3]; lipid 1000 μM): 2%
- permeation of FD3 relative to negative controls [3]: enhanced the permeation of FD3 above that of the negative controls
- Mean % of Original TER Value ([2]; lipid 500 μM (Table 4)): 112%
- Mean % of Original TER Value [2, 9]: 70%

Molecule: CCCCCCCCCCCCCCCCOC[C@H](COP(=O)(O)OCC[N+](C)(C)C)OC [2-O-Methyl-PAF, 1-O-Hexadecyl-2-O-Methyl-sn-Glycero-3-Phosphorylcholine]
- Mean % Relative Cytotoxic Effect (LDH) ([1]; lipid 500 μM (Table 4)): 18%
- Mean % Relative Cytotoxic Effect (LDH) ([1]; lipid 1000 μM (Table 4)): 20%
- Mean % FD3 Permeation ([3]; lipid 500 μM): 7%
- Mean % FD3 Permeation ([3]; lipid 1000 μM): 16%
- permeation of FD3 relative to negative controls [3]: enhanced the permeation of FD3 above that of the negative controls
- Mean % of Original TER Value ([2]; lipid 500 μM (Table 4)): 8%
- Mean % of Original TER Value [2, 9]: 2%

Molecule: CCCCCCCCCCCCCCCC(=O)OC[C@H](COP(=O)([O-])OCC[N+](C)(C)C)OC(C)=O [16:0-02:0 PC, 1-Palmitoyl-2-Acetoyl-sn-Glycero-3-Phosphocholine]
- Mean % Relative Cytotoxic Effect (LDH) ([1]; lipid 1000 μM (Table 4)): 23%
- Mean % FD3 Permeation ([3]; lipid 1000 μM): 8%
- activity at 1000 µM [2, 9]: 25%

Molecule: CCCCCCCCCCCCCCCCOC[C@@H](O)COP(=O)([O-])OCC[N+](C)(C)C [C16 Lyso-PAF, 1-O-Hexadecyl-2-Hydroxy-sn-Glycero-3-Phosphocholine]
- Mean % Relative Cytotoxic Effect (LDH) ([1]; lipid 1000 μM (Table 4)): 26%
- % FITC-Dextran Permeation FD10 ([3]; lipid 1000 μM): 6%
- % FITC-Dextran Permeation FD40 ([3]; lipid 1000 μM): 2%
- % FITC-Dextran Permeation FD3 ([3]; lipid 1000 μM (Table 5)): 8%
- Mean % FD3 Permeation ([3]; lipid 1000 μM): 6%
- permeation of FD3 relative to negative controls [3]: enhanced the permeation of FD3 above that of the negative controls
- activity at 1000 µM [2, 9]: 14%

Molecule: CCCCCCCCCCCCCCCCOC[C@H](CO)OC(C)=O [C16-02:0 DG, 1-O-Hexadecyl-2-Acetoyl-sn-Glycerol]
- Mean % Relative Cytotoxic Effect (LDH) ([1]; human, 1 h, 1000 μM): −3%
- Mean % FD3 Permeation ([3]; lipid 1000 μM): 0%
- activity at 1000 µM [2, 9]: 98%

Molecule: CCCCCCCCCCCCCCCCOC[C@H](COP(=O)([O-])OCC[N+](C)(C)C)OC(=O)CCC [C16-04:0 PC, 1-O-Hexadecyl-2-Butyroyl-sn-Glycero-3-Phosphocholine]
- Mean % Relative Cytotoxic Effect (LDH) ([1]; human, 1 h, 1000 μM): 22%
- Mean % FD3 Permeation ([3]; lipid 1000 μM): 7%
- permeation of FD3 relative to negative controls [3]: enhanced the permeation of FD3 above that of the negative controls
- activity at 1000 µM [2, 9]: 0%

Molecule: CCCCCCCC/C=C\CCCCCCCC(=O)O[C@H](COCCCCCCCCCCCCCCCC)COP(=O)([O-])OCC[N+](C)(C)C [C16-18:1 PC, 1-O-Hexadecyl-2-Oleoyl-sn-Glycero-3-Phosphocholine]
- Mean % Relative Cytotoxic Effect (LDH) ([1]; human, 1 h, 1000 μM): −2%
- Mean % FD3 Permeation ([3]; lipid 1000 μM): 0%
- activity at 1000 µM [2, 9]: 86%

Molecule: CCCCC/C=C\C/C=C\C/C=C\C/C=C\CCCC(=O)O[C@H](COCCCCCCCCCCCCCCCC)COP(=O)([O-])OCC[N+](C)(C)C [C16-20:4 PC, 1-O-Hexadecyl-2-Arachidonoyl-sn-Glycero-3-Phosphocholine]
- Mean % Relative Cytotoxic Effect (LDH) ([1]; human, 1 h, 1000 μM): 0%
- Mean % FD3 Permeation ([3]; lipid 1000 μM): 0%
- activity at 1000 µM [2, 9]: 96%

Molecule: CCCCCCCCCCCCC/C=C/[C@@H](O)[C@@H](N)CO[C@@H]1O[C@H](CO)[C@H](O)[C@H](O)[C@H]1O [Galactosyl sphingosine, D-Galactosyl-β1-1′-D-erythro-Sphingosine]
- Cytotoxic Effect (LDH) 1 hr. Post-treatments [1, 6]: 2%
- Cytotoxic Effect (LDH) 1 hr. Post-treatments [1, 7]: 3%
- Cytotoxic Effect (LDH) 1 hr. Post-treatments [1, 8]: 2%
- Cytotoxic Effect (LDH) 1 hr. Post-treatments [1, 4]: 26%
- Mean TER Reduction 1 hr. Post-treatment ([2]; lipid 125 μM): 36%
- Mean TER Reduction 1 hr. Post-treatment ([2]; lipid 250 μM): 43%
- Mean TER Reduction 1 hr. Post-treatment ([2]; lipid 500 μM): 42%
- Mean TER Reduction 1 hr. Post-treatment [2, 5]: 91%

Molecule: CCCCCCCCCCCCC/C=C/[C@@H](O)[C@H](COP(=O)(O)O)NC(C)=O.N [N-acetoyl ceramide-1-phosphate, (2S,3R,4E)-2-Acetoylaminooctadec-4-Ene-1,3-Diol-1-Phosphate (Ammonium Salt)]
- Cytotoxic Effect (LDH) 1 hr. Post-treatments [1, 6]: 2%
- Cytotoxic Effect (LDH) 1 hr. Post-treatments [1, 7]: 2%
- Cytotoxic Effect (LDH) 1 hr. Post-treatments [1, 8]: 2%
- Cytotoxic Effect (LDH) 1 hr. Post-treatments [1, 4]: 2%
- Mean TER Reduction 1 hr. Post-treatment ([2]; lipid 125 μM): 24%
- Mean TER Reduction 1 hr. Post-treatment ([2]; lipid 250 μM): 23%
- Mean TER Reduction 1 hr. Post-treatment ([2]; lipid 500 μM): 29%
- Mean TER Reduction 1 hr. Post-treatment [2, 5]: 42%

Molecule: Octylphenolpoly(ethyleneglycolether)x [Triton-X100, reference compound]
- % Relative Cytotoxic Effect (LDH) ([1]; in the presence of FITC-Dextran FD3 (Table 6)): 99%
- Cytotoxic Effect (LDH) 1 hr. Post-treatments [1, 10]: 100%
- Mean % Relative Cytotoxic Effect (LDH) [1, 11]: 100%
- % Cytotoxicity ([1]; treatment alone, no lipid, apical LDH release (Table 8), Triton 0.3%): 100%
- % of the original TER value ([2]; controls of the further test of lipids at 250 μM to 1000 μM (b219-b220)): −6%
- Mean TER Reduction 1 hr. Post-treatment [2, 10]: 100%
- Mean % of Original TER Value [2, 11]: −7%
